{"source": "patent US20070197485A1", "about": "“Therapy and Use of Compounds in Therapy” (MAX-DELBRUECK-CENTRUM FUR MOLEKULARE MEDIZIN, priority 1999, published 2007)", "molecules": {"B1": {"name": "BPi: BPi, agent tested to inhibit LPS-mediated TNF production in whole blood; not spelled out in the text (protein, UniProt P17213 32-487, looked up)", "Bactericidal …": "VNPGVVVRISQKGLDYASQQGTAALQKELKRIKIPDYSDSFKIKHLGKGHYSFYSMDIREFQLPSSQISMVPNVGLKFSISNANIKISGKWKAQKRFLKMSGNFDLSIEGMSISADLKLGSNPTSGKPTITCSSCSSHINSVHVHISKSKVGWLIQLFHKKIESALRNKMNSQVCEKVTNSVSSELQPYFQTLPVMTKIDSVAGINYGLVAPPATTAETLDVQMKGEFYSENHHNPPPFAPPVMEFPAAHDRMVYLGLSDYFFNTAGLVYQEAGVLKMTLRDDMIPKESKFRLTTKFFGTFLPEVAKKFPNMKIQIHVSASTPPHLSVQPTGLTFYPAVDVQAFAVLPNSSLASLFLIGMHTTGSMEVSAESNRLVGELKLDRLLLELKHSNIGPFPVELLQDIMNYIVPILVLPRVNEKLQKGFPLPTPARVQLYNVVLQPHQNFLLFGADVVYK"}, "B2": {"name": "LBP: LPS binding protein (protein, UniProt P18428 26-481, looked up)", "Lipopolysaccharide-binding …": "ANPGLVARITDKGLQYAAQEGLLALQSELLRITLPDFTGDLRIPHVGRGRYEFHSLNIHSCELLHSALRPVPGQGLSLSISDSSIRVQGRWKVRKSFFKLQGSFDVSVKGISISVNLLLGSESSGRPTVTASSCSSDIADVEVDMSGDLGWLLNLFHNQIESKFQKVLESRICEMIQKSVSSDLQPYLQTLPVTTEIDSFADIDYSLVEAPRATAQMLEVMFKGEIFHRNHRSPVTLLAAVMSLPEEHNKMVYFAISDYVFNTASLVYHEEGYLNFSITDDMIPPDSNIRLTTKSFRPFVPRLARLYPNMNLELQGSVPSAPLLNFSPGNLSVDPYMEIDAFVLLPSSSKEPVFRLSVATNVSATLTFNTSKITGFLKPGKVKVELKESKVGLFNAELLEALLNYYILNTFYPKFNDKLAEGFPLPLLKRVQLYDLGLQIHKDFLFLGANVQYMRV"}}, "key": {"[1]": {"test_system": "monocyte generated cytokine production in response to LPS", "conditions": "in vitro, in the concentrations used; cited from earlier work"}, "[2]": {"test_system": "whole blood IL6 production", "test": "Whole blood IL6 production after therapeutic application of UDCA", "format": "in vivo, human", "conditions": "patient 4; after 2 days of UDCA treatment, 3 times 250 mg daily", "description": "(§1) We have tested the ability of the therapeutic application of ursodeoxycholic acid (UDCA, FALK Pharma GmbH) to lower plasma levels of TNF and IL6 and to lower spontaneous and LPS-stimulated whole blood cytokine production in patients with cachexia.\n(§2) We studied in 2 patients with cachexia due to liver cirrhosis plasma cytokine levels after treatment with 3 times 250 mg daily UDCA (FALK Pharma GmbH). The patients had weight loss >7.5% compared to their previous normal weight. The patients were studied at baseline prior to the treatment on 2 subsequent days (day ”−1” and day “0”), and then they were restudied on day 1 (“1”), day 2 (“2”), and day 5 (“5”), see FIGS. 9 and 12.\n(§3) Methods: Heparinized whole blood was diluted 1:10 with medium ±LPS (50 pg/ml), ±BPI (1 ug/ml), and ±UDCA (1 ug/ml-1 mg/ml) according to the manufacturer's recommendation (Milenia whole blood assay; DPC Biermann, Bad Nauheim, Germany) and incubated for 4 hours at 37° C. In the supernatant and in plasma, we assessed concentrations of TNF and IL-6 using the semiautomated Immulite system (DPC-Biermann, Bad Nauheim, Germany)."}, "[3]": {"test_system": "IL6 production in whole blood of patients with cachexia", "test": "Milenia whole blood assay, IL6 production (in vitro addition of UDCA / BPi)", "format": "cell-based, human", "source_text": "(§4) We have tested the ability of ursodeoxycholic acid (UDCA, FALK Pharma GmbH) and BPi to inhibit LPS-mediated TNF production in whole blood of patients with cachexia. We studied 4 patients with cachexia due to liver cirrhosis. The patients had all weight loss >7.5% compared to their previous normal weight. […] All patients were studied twice on 2 subsequent days (day “−1” and day “0”), see FIG. 9 to 12.\n[…] In the supernatant, we assessed concentrations of TNF and IL-6 using the semiautomated Immulite system (DPC-Biermann, Bad Nauheim, Germany)."}, "[4]": {"test_system": "TNF production in whole blood of patients with cachexia", "test": "Milenia whole blood assay, TNF production (in vitro addition of UDCA / BPi)", "format": "cell-based, human", "description": "as §4\nas §3, with “μg/ml), ±BPi” for “pg/ml), ±BPI”, “μg/ml),” for “ug/ml),”, “μg/ml-1” for “ug/ml-1”, “supernatant,” for “supernatant and in plasma,”"}, "[5]": {"test_system": "whole blood TNF production", "test": "Whole blood TNF production after therapeutic application of UDCA", "format": "in vivo, human", "conditions": "patient 4; after 2 days of UDCA treatment, 3 times 250 mg daily", "description": "as §1, §2, §3"}, "[6]": {"test_system": "LPS-induced TNF-α release", "test": "LPS-induced TNF-α release with lipoproteins / LBP (FIG. 4 to 7)", "format": "cell-based", "conditions": "addition of LBP to a lipoprotein containing serum (FIG. 7)"}, "[7]": {"conditions": "100 ug/ml UDCA, whole blood of patients with cachexia due to liver cirrhosis, 4 hours at 37° C"}, "[8]": {"conditions": "1 mg/ml UDCA, whole blood of patients with cachexia due to liver cirrhosis diluted 1:10, 4 hours at 37° C, on average"}, "[9]": {"conditions": "BPi 1 ug/ml, in 6 of 8 experiments, or towards non-detectability, 2 cases stable, p<0.05"}, "[10]": {"conditions": "BPi 1 ug/ml, whole blood of patients with cachexia due to liver cirrhosis, no LPS"}}, "data": [{"molecule": "C[C@H](CCC(=O)O)[C@H]1CC[C@H]2[C@@H]3[C@H](O)C[C@@H]4C[C@H](O)CC[C@]4(C)[C@H]3CC[C@]12C", "note": "[chenodeoxycholic acid]", "values": [{"measurement": "effect on monocyte generated cytokine production in response to LPS", "setting": "[1]", "value": "less effective"}]}, {"molecule": "C[C@H](CCC(=O)O)[C@H]1CC[C@H]2[C@@H]3[C@@H](O)C[C@@H]4C[C@H](O)CC[C@]4(C)[C@H]3CC[C@]12C", "note": "[UDCA, ursodeoxycholic acid]", "values": [{"measurement": "LPS-stimulated IL6 production lowered", "setting": "[2]", "value": 39.6, "unit": "%"}, {"measurement": "reduction of LPS-stimulated IL6 production", "setting": "[3]; [7]", "value": 13, "unit": "%"}, {"measurement": "reduction of LPS-stimulated IL6 production", "setting": "[3]; [8]", "value": 97, "unit": "%"}, {"measurement": "reduction of LPS-stimulated TNF production", "setting": "[4]; [7]", "value": 42, "unit": "%"}, {"measurement": "reduction of LPS-stimulated TNF production", "setting": "[4]; [8]", "value": "> 99", "unit": "%"}, {"measurement": "LPS-stimulated TNF production lowered", "setting": "[5]", "value": 43.5, "unit": "%"}]}, {"molecule": "B1", "values": [{"measurement": "lowering of spontaneous IL6 levels", "setting": "[3]; [9]", "value": "at least 5 pg/mi"}, {"measurement": "spontaneous production of IL6", "setting": "[3]; [10]", "value": "reduced significantly"}, {"measurement": "lowering of spontaneous TNF levels", "setting": "[4]; [9]", "value": "at least 5 pg/mi"}, {"measurement": "spontaneous production of TNF", "setting": "[4]; [10]", "value": "reduced significantly"}]}, {"molecule": "B2", "values": [{"measurement": "LPS-mediated TNF-α production", "setting": "[6]", "value": "reduced"}]}]}
